Patent US20170266157A1, “METHODS FOR WOUND HEALING AND SCAR PREVENTION” (priority 2016, published 2017)

Assays:
[1] = system: resection site of a periauricular basal cell carcinoma; experiment: Healing of full-thickness resection site of periauricular basal cell carcinoma, topical treatment; type: in vivo, person
Source text: A person underwent a full-thickness resection of a basal cell carcinoma on an outpatient basis. See FIG. 1, panel a. showing wound during operation and panel b. showing wound immediately post operation. RT175 formulated in an Amantle™ cream base was applied immediately post-operatively, and then daily thereafter for 12 days. […] An archival photo of a scar biopsy is included for comparison.

FKBP52 = biological target: T1, FKBP52 (Homo sapiens, UniProt Q02790); conditions: treatment of fibroblasts for 2 hours; cited from earlier work
T1 construct: endogenous in cells
T1 sequence (Q02790 1-459): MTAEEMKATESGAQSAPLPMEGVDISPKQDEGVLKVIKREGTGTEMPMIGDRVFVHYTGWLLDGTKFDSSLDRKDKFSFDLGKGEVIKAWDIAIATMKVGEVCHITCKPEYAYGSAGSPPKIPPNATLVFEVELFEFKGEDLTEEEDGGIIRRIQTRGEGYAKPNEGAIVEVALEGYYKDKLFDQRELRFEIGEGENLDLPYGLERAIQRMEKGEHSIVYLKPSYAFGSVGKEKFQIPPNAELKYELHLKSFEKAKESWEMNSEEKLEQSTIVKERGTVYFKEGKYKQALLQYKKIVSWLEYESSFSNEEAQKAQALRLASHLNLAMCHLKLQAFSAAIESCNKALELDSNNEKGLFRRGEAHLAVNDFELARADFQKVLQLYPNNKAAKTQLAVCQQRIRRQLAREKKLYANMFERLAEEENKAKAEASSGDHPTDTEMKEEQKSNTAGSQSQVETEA

[2] = biological target: T2, FK506 binding protein 4 (FKBP52) (Homo sapiens, UniProt Q02790); conditions: cited from earlier work
T2 sequence (Q02790 1-459): T1 sequence (Q02790 1-459)

[3] = system: stem cell markers Oct-4 and Sox-2; experiment: Stem cell marker immunohistology of treated 5 mm dermal biopsy punch sites; type: in vivo, person; conditions: RT175 in Amantle cream base daily for 30 days, re-biopsy, 10 micron sections
Method: A person underwent bilateral 5 millimeter (“mm”) dermal biopsy punches in the forearm, 5 centimeter (“cm”) distal to the antecubital space. Treatment with RT175 in an Amantle™ cream base, or with the Amantle™ cream base alone was begun immediately upon hemostasis. The skin was treated daily for 30 days, whereupon the sites were re-biopsied and the tissue processed for immunohistology. 10 micron thick sections were stained for the expression of the stem cell markers Oct-4, see FIG. 4, panels a. and c., or Sox-2, see FIG. 4, panels b. and d. […] Not to be held to a particular theory, the presence of stem cells markers in RT175 treated wound sites indicates active stem cells. The presence of these stem cells in the wound site causes rapid and proper wound healing without the formation of scar tissue. In turn, the absence of stem cells from wound sites allows the formation of scar tissue.

[4] = system: ED&C sites of the supradeltoid regions of the upper arm; experiment: Healing after electrodissection and curettage (ED&C) of the upper arm, topical treatment; type: in vivo, person
Method: The supradeltoid regions of the left and right upper arm were treated by electrodissection and curettage (“ED&C”) for treatment of basal cell […]. Beginning on the day of surgery, and daily thereafter the sites were treated with RT175 in an Amantle™ cream base, or with the Amantle™ cream base alone. […] See FIG. 2, Day 20, bottom panel. In contrast, 68 days after the procedure the vehicle treated site was still not fully closed. Six-months following the procedure, the RT175-treated site was scar-free, see FIG. 3, panel a., while the vehicle-treated site has a pronounced, hypopigmented stellate shaped scar, see FIG. 3, panel b.

[5] = system: ear punch-hole wound (mouse pinna); experiment: Punch-hole biopsy of the ear of mice, topical treatment; type: in vivo, ICR breeder mice; conditions: topical once daily, within 21 days of punch-hole biopsy; 2.4 μg RT1061, 80 μg FK506
Method: Retired ICR breeder mice of both sexes with weight between 45 and 50 grams were subject to single bilateral punch-hole biopsies. The animals were then randomly assigned to one of three groups to receive either 2.4 μg of RT1061, 80 μg FK506 or a vehicle control. RT1061, FK506 or vehicle control was applied topically to both the ventral and dorsal surface of the ear, once each day including immediately after biopsy.
All wounds were photographed using a Nikon CoolPix 990 digital camera. Each image included a metric ruler that had been approximated to the wound. The images of the wounds were opened in Adobe Photoshop, and using the “measurement tool”, the length, in pixels, of 3 cm along the ruler's straight edge was determined. That number was used to calculate a conversion factor that was then used to normalize each photograph. The conversion factor was calculated as 100/length. To normalize the area of the lesion in a photograph, the […] using the “magic wand” tool, and the number of voxels were multiplied by the conversion factor, thus generating the equation: area=volume (voxels)*conversion factor. The area at t=0 was defined as 100%. […] The mean area of the initial hole was calculated as average […] of the punches at t=0 (determined by using an outline of the hole measured against the ruler, using Adobe Photoshop) times π. […]

[6] = system: dermabrasion lesions of dorsal skin; experiment: Dermabrasion lesions of dorsal skin of mice, topical treatment; type: in vivo, ICR breeder mice; conditions: 5 μL of 100 nanomolar RT1061 topical once daily, 10 days after rasping
Method: Retired ICR breeder mice of both sexes with weight between 45 and 50 grams were shaved and rasped to induce dermabrasion lesions. The animals were then randomly assigned (5 per treatment arm) to one of two groups to receive either 5 μL of 100 nanomolar RT1061 or a vehicle control. RT1061 or vehicle control was applied topically to the lesion site once each day including immediately after dermabrasion.

## CCC(C)(C)C(=O)C(=O)N1CCC[C@H]1C(=O)O [RT175]
[1]; 12th post-operative day, RT175 in Amantle cream base daily
  scar observed, skin appearance: little to no scar
[1]; RT175 in Amantle cream base, applied immediately post-operatively then daily for 12 days
  wound closed and largely healed by: ≤ 7 post-operative day
[1]; biopsy 6 months later
  scar tissue by biopsy: absence of scar tissue
FKBP52
  translocation of FKBP52: translocation of FKBP52 to the nucleus
[2]
  binding affinity to FKBP52: high affinity
[3]
  expression of stem cell markers Oct-4 and Sox-2 in treated tissue: expressed both stem cell markers
[4]; RT175 in Amantle cream base daily, vehicle site still not fully closed at 68 days
  treated site fully closed by: ≤ 20 post-operative day
[4]; six months following the procedure
  scar at treated site: scar-free

## CCC(C)(C)C(=O)C(=O)N1CCCC1Cc1ccccc1 (centres unmarked) [RT1061, 1-(2-benzylpyrrolidin-1-yl)-3,3-dimethylpentane-1,2-dione]
[5]
  regeneration of mouse pinna tissue (ear-hole closure): almost complete regeneration of the mouse pinna
[6]
  hair growth: rapid hair growth
  regeneration of rasped skin: rapid regeneration of rasped skin
